Data reported in PMC7613998, “Development of selective inhibitors of phosphatidylinositol 3-kinase C2α” (Nature Chemical Biology, 2022).

Legend:
Test in all cases: biochemical
[1] = biological target: FRAP1 (mTOR) (Homo sapiens, UniProt P42345); parameters: SelectScreen Z'-LYTE mTOR kinase assay, 1 uM compound, 10 uM ATP, per cent inhibition; settings: ATP=10; Technology=ZLYTE; 10 uM ATP
Protocol: (§1) As PI3KC2α is related to other PI3Ks and to PI3K-like protein kinases such as mTOR, the selectivity of PITCOINs was determined in a panel of biochemical assays. […] Finally, the high specificity of PITCOINs for PI3KC2α was verified by Kinobead profiling experiments. In this approach, the ability of PITCOINs to compete the affinity capture of cellular kinases on immobilized nonselective kinase inhibitors (Kinobeads) is analyzed by mass spectrometry (MS)[31]. […] Four nonkinase weak off-targets were globally found for the three inhibitors with only FECH[32] common to the three PITCOINs (Supplementary Dataset).  Extended Data Fig. 2 Lipid kinase inhibitor profile of PITCOIN1-3. (a–c) Selectivity profiling of PITCOIN1-3 (1 µM) with purified lipid kinases in the presence of 10 µM ATP. […] Data are presented as mean ± SD from two independent experiments. (d, e) IC50 measurements of PITCOIN1-3 against purified recombinant class I PI3K p110α/p85α (d) or purified class III PI3K VPS34 complex II (e). 10 µM ATP and 20 µM PIP3 (for p110α/p85α) or 200 µM PI (for VPS34 complex II) were used as substrates. […] Data are presented as mean ± SD from two independent experiments. Source data

[2] = biological target: DYRK1B (Homo sapiens, UniProt Q9Y463); parameters: SelectScreen Z'-LYTE purified kinase panel, per cent inhibition, mean of two points; settings: (μM)=Km app
[3] = biological target: MAP2K2 (MEK2) (Homo sapiens, UniProt P36507); parameters: SelectScreen LanthaScreen kinase binding assay, per cent tracer displacement, mean of two points; settings: tracer displacement
Sequence of MAP2K2 (MEK2) (P36507 whole entry): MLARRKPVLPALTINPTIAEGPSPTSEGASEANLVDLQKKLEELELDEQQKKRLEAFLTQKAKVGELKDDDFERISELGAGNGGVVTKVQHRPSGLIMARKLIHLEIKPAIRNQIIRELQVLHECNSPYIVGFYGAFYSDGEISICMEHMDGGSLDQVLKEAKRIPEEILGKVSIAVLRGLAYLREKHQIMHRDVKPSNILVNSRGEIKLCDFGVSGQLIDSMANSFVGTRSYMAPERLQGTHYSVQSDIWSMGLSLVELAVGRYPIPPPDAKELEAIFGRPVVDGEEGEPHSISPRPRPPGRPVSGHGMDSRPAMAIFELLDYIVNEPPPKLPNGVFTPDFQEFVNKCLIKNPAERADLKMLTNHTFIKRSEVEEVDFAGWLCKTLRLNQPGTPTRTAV

[4] = biological target: T1, STK17B (DRAK2) (Homo sapiens, UniProt O94768); parameters: SelectScreen LanthaScreen kinase binding assay, per cent tracer displacement, mean of two points; settings: tracer displacement
T1 sequence (O94768 1-372): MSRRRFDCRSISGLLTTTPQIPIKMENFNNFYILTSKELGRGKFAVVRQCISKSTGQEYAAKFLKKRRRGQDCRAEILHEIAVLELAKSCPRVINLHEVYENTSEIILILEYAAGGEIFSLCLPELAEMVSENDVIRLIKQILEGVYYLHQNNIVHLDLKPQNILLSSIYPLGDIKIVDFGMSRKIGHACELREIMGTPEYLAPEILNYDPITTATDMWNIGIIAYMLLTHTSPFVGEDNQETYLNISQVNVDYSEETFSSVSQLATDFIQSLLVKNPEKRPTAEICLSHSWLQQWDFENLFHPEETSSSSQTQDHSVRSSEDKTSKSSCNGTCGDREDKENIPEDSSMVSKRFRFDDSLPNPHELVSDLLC

[5] = biological target: T2, TGFBR1 (ALK5) (Homo sapiens, UniProt P36897); parameters: SelectScreen LanthaScreen kinase binding assay, per cent tracer displacement, mean of two points; settings: tracer displacement
T2 sequence (P36897 1-503): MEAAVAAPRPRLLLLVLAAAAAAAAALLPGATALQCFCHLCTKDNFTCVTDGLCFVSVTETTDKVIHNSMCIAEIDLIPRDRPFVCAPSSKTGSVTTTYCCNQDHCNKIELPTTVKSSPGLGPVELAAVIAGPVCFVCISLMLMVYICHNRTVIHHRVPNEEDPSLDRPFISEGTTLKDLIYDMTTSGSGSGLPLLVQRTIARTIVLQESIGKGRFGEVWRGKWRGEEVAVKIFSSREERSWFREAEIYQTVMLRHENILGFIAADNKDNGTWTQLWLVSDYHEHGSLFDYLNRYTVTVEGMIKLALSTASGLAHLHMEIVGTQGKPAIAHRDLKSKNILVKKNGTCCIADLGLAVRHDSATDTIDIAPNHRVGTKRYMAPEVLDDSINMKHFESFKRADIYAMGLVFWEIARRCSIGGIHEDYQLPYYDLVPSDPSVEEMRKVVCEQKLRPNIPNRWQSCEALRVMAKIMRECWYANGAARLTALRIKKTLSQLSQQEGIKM

[6] = biological target: PIK3C3 (hVPS34) (Homo sapiens, UniProt Q8NEB9); parameters: SelectScreen Adapta purified lipid kinase panel, 1 uM compound, 10 uM ATP, per cent inhibition; settings: ATP=10; Technology=Adapta; 10 uM ATP
Sequence of PIK3C3 (hVPS34) (Q8NEB9 whole entry): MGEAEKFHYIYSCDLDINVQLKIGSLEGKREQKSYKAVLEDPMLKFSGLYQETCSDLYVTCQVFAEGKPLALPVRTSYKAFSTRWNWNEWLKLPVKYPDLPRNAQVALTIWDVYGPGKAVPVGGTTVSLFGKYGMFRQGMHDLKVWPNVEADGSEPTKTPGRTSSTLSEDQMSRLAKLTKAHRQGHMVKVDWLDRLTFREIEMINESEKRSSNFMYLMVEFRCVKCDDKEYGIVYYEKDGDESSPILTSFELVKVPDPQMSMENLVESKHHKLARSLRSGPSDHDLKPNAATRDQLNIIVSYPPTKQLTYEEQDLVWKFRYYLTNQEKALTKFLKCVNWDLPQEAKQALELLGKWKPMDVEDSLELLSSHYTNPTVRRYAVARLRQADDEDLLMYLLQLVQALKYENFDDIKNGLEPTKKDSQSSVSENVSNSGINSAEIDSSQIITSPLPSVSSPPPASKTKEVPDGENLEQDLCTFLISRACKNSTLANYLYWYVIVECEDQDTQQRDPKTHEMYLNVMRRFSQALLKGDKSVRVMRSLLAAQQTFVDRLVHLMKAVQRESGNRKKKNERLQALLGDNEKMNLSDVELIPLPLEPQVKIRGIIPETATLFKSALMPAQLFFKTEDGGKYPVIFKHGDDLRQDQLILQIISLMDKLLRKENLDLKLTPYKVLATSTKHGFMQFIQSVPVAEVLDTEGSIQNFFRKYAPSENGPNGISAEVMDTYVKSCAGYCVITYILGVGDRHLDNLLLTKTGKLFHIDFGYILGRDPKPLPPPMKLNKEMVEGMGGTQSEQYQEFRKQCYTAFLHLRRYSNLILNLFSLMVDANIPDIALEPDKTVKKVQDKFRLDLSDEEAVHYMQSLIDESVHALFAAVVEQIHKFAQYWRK
Protocol: as §1

[7] = biological target: PIP5K1A (Homo sapiens, UniProt Q99755); parameters: SelectScreen Adapta purified lipid kinase panel, 1 uM compound, 10 uM ATP, per cent inhibition; settings: ATP=10; Technology=Adapta; 10 uM ATP
Sequence of PIP5K1A (Q99755 whole entry): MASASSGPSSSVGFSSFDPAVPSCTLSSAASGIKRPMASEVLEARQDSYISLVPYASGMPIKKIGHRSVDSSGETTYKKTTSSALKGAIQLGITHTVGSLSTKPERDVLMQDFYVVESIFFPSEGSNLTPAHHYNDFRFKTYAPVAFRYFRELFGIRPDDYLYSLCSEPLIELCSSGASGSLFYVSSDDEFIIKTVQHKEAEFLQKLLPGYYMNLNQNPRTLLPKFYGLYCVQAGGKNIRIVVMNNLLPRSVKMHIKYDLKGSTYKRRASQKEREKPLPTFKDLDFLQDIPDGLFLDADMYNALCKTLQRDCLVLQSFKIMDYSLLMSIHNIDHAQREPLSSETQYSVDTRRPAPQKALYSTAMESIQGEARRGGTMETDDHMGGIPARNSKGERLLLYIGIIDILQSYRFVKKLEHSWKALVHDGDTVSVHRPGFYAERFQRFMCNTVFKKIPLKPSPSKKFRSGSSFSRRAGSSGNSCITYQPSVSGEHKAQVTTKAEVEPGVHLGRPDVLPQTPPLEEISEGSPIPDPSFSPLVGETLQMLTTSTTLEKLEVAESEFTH
Protocol: as §1

[8] = biological target: PIK3CA/PIK3R3 (p110 alpha/p55 gamma) (Homo sapiens, UniProt P42336); parameters: SelectScreen Adapta purified lipid kinase panel, 1 uM compound, 10 uM ATP, per cent inhibition; settings: ATP=10; Technology=Adapta; 10 uM ATP
Sequence of PIK3CA/PIK3R3 (p110 alpha/p55 gamma) (P42336 whole entry): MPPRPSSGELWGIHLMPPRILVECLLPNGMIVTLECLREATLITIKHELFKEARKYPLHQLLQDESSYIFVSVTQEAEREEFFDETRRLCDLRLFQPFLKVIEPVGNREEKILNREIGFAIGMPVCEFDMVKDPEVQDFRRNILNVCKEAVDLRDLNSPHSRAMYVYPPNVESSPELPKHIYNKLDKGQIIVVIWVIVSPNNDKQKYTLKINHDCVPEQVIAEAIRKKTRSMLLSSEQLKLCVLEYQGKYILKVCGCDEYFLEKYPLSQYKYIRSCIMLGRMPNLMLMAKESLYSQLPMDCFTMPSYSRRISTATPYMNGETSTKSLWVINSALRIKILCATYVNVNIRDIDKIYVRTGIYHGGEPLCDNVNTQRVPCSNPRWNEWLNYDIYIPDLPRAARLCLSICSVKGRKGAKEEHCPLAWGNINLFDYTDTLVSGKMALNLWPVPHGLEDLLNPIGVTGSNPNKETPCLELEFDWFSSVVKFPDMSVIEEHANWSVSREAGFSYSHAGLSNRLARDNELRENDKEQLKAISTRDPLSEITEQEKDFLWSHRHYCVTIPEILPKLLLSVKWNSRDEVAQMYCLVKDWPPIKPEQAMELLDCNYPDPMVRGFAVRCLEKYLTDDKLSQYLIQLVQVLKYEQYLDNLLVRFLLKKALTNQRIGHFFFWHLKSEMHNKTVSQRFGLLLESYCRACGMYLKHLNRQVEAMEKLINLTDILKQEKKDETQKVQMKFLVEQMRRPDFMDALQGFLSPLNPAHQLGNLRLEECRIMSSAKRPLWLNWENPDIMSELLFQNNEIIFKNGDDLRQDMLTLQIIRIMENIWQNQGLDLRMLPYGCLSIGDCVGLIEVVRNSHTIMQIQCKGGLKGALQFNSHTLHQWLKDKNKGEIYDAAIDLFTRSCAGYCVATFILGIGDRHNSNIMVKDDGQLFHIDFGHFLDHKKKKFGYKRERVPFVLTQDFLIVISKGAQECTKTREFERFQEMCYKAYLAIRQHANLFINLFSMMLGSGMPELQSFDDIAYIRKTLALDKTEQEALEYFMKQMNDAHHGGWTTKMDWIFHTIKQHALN
Protocol: as §1

[9] = biological target: PIP5K1C (Homo sapiens, UniProt O60331); parameters: SelectScreen Adapta purified lipid kinase panel, 1 uM compound, 10 uM ATP, per cent inhibition; settings: ATP=10; Technology=Adapta; 10 uM ATP
Sequence of PIP5K1C (O60331 whole entry): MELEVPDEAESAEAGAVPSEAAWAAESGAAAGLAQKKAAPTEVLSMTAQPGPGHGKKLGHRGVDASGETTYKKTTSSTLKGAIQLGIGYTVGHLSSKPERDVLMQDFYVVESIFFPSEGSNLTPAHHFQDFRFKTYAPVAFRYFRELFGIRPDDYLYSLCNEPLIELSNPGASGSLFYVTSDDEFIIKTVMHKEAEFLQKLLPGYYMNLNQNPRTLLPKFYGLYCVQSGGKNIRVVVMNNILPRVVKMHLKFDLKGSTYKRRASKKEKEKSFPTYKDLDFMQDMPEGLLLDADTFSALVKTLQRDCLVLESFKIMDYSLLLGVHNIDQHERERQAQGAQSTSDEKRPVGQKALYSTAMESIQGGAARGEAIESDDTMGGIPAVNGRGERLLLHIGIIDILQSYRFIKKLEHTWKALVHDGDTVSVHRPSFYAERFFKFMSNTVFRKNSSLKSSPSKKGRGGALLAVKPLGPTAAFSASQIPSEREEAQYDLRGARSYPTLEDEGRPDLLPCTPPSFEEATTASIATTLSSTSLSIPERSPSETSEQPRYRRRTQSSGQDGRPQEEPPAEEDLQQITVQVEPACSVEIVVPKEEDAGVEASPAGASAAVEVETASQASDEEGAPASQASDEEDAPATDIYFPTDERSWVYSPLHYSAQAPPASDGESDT
Protocol: as §1

[10] = biological target: PIK3CB/PIK3R1 (p110 beta/p85 alpha) (Homo sapiens, UniProt P42338); parameters: SelectScreen Adapta purified lipid kinase panel, 1 uM compound, 10 uM ATP, per cent inhibition; settings: ATP=10; Technology=Adapta; 10 uM ATP
Protocol: as §1

[11] = biological target: PI4KB (PI4K beta) (Homo sapiens, UniProt Q9UBF8); parameters: SelectScreen Adapta purified lipid kinase panel, 1 uM compound, 10 uM ATP, per cent inhibition; settings: ATP=10; Technology=Adapta; 10 uM ATP
Sequence of PI4KB (PI4K beta) (Q9UBF8 whole entry): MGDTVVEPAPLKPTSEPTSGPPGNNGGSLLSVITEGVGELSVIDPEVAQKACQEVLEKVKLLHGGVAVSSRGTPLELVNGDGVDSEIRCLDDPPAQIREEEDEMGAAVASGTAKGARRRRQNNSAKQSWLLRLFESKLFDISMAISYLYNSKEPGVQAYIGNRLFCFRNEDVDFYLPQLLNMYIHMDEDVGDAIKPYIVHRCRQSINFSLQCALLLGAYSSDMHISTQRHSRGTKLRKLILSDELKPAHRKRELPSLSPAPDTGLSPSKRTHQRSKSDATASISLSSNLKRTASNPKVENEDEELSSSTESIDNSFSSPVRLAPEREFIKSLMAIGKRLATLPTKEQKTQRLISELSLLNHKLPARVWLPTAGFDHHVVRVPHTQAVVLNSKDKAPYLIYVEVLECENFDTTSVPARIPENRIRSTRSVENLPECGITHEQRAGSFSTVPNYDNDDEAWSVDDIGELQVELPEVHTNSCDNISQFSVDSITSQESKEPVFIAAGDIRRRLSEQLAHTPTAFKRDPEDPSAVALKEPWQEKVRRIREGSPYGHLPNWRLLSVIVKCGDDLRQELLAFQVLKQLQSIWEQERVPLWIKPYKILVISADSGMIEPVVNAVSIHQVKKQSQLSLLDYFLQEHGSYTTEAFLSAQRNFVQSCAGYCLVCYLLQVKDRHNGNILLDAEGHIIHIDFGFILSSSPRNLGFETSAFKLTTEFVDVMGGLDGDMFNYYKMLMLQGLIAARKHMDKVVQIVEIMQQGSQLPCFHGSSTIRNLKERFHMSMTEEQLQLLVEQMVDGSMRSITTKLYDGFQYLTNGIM
Protocol: as §1

[12] = biological target: PIP5K1B (Homo sapiens, UniProt O14986); parameters: SelectScreen Adapta purified lipid kinase panel, 1 uM compound, 10 uM ATP, per cent inhibition; settings: ATP=10; Technology=Adapta; 10 uM ATP
Protocol: as §1

O=C(CSc1nc2nccnc2c(=O)n1CCc1ccccc1)Nc1nccs1 [compound 1, PITCOIN1] gave an inhibition at 1 µM [1] of 8%, an inhibition at 1 µM [2] of -3.1% and an inhibition at 3 µM [2] of -1.26%. For the same molecule, the inhibition at 10 µM [2] was -0.107%, the inhibition at 1 µM [3] was -3% and the inhibition at 3 µM [3] was 2.42%. It also gave an inhibition at 10 µM [3] of -1.45%, an inhibition at 1 µM [4] of -6.01% and an inhibition at 3 µM [4] of 2.55%. It also gave an inhibition at 10 µM [4] of 4.06%, an inhibition at 1 µM [5] of -5.43% and an inhibition at 3 µM [5] of 9.69%. For the same molecule, the inhibition at 10 µM [5] was 5.12%, the inhibition at 1 µM [6] was -14% and the inhibition at 1 µM [7] was 4%. It also gave an inhibition at 1 µM [8] of -6%, an inhibition at 1 µM [9] of 15% and an inhibition at 1 µM [10] of 10%. The inhibition at 1 µM [11] was 4% and the inhibition at 1 µM [12] was 5%.

O=C(CSc1nc2nccnc2c(=O)n1CCc1ccccc1)Nc1nc(-c2cccc(O)c2)cs1 [compound 2, PITCOIN2] was tested, and the inhibition at 1 µM [1] was 5%, the inhibition at 1 µM [6] was 7% and the inhibition at 1 µM [7] was -6%. It also gave an inhibition at 1 µM [8] of -10%, an inhibition at 1 µM [9] of -8% and an inhibition at 1 µM [10] of 13%. The inhibition at 1 µM [11] was 3% and the inhibition at 1 µM [12] was -1%.

With CS(=O)(=O)Nc1cccc(-c2csc(NC(=O)CSc3nc4nccnc4c(=O)n3CCc3ccccc3)n2)c1 [compound 3, PITCOIN3] the inhibition at 1 µM [1] was 4%, the inhibition at 1 µM [2] was -3% and the inhibition at 3 µM [2] was -3.02%. For the same molecule, the inhibition at 10 µM [2] was -2.65%, the inhibition at 1 µM [3] was 0.637% and the inhibition at 3 µM [3] was 2.82%. The inhibition at 10 µM [3] was -3.31%, the inhibition at 1 µM [4] was -7.55% and the inhibition at 3 µM [4] was -5.4%. The inhibition at 10 µM [4] was 11.1%, the inhibition at 1 µM [5] was -4.81% and the inhibition at 3 µM [5] was 14.1%. For the same molecule, the inhibition at 10 µM [5] was 1.48%, the inhibition at 1 µM [6] was 2% and the inhibition at 1 µM [7] was -7%. It also gave an inhibition at 1 µM [8] of 5%, an inhibition at 1 µM [9] of -4% and an inhibition at 1 µM [10] of 12%. It also gave an inhibition at 1 µM [11] of 13%.
